Data from BigSolDB 2.1.

Compound: O=C1C=CC(=O)N1c1cc(F)c(Br)c(F)c1
- solubility (mole fraction) (in 1,4-dioxane, 287.65 K): 0.0122
- solubility (mole fraction) (in 1,4-dioxane, 290.65 K): 0.0133
- solubility (mole fraction) (in 1,4-dioxane, 293.85 K): 0.0146
- solubility (mole fraction) (in 1,4-dioxane, 297.15 K): 0.016
- solubility (mole fraction) (in 1,4-dioxane, 302.05 K): 0.0183
- solubility (mole fraction) (in 1,4-dioxane, 306.25 K): 0.0206
- solubility (mole fraction) (in 1,4-dioxane, 310.05 K): 0.023
- solubility (mole fraction) (in 1,4-dioxane, 317.15 K): 0.0281
- solubility (mole fraction) (in 1,4-dioxane, 321.65 K): 0.0318
- solubility (mole fraction) (in 1,4-dioxane, 324.45 K): 0.0342
- solubility (mole fraction) (in 1,4-dioxane, 330.85 K): 0.0408
- solubility (mole fraction) (in 1,4-dioxane, 335.35 K): 0.0464
- solubility (mole fraction) (in 1,4-dioxane, 339.15 K): 0.0513
- solubility (mole fraction) (in 1,4-dioxane, 342.25 K): 0.0558
- solubility (mole fraction) (in 1,4-dioxane, 347.25 K): 0.0639
- solubility (mole fraction) (in 1,4-dioxane, 353.65 K): 0.0759
- solubility (mole fraction) (in 2-butanone, 289.75 K): 0.0086
- solubility (mole fraction) (in 2-butanone, 299.25 K): 0.0112
- solubility (mole fraction) (in 2-butanone, 303.5 K): 0.0128
- solubility (mole fraction) (in 2-butanone, 308.75 K): 0.0149
- solubility (mole fraction) (in 2-butanone, 313 K): 0.017
- solubility (mole fraction) (in 2-butanone, 316.25 K): 0.0187
- solubility (mole fraction) (in 2-butanone, 318.6 K): 0.0202
- solubility (mole fraction) (in 2-butanone, 321.75 K): 0.022
- solubility (mole fraction) (in 2-butanone, 324.25 K): 0.0237
- solubility (mole fraction) (in 2-butanone, 327.05 K): 0.0257
- solubility (mole fraction) (in 2-butanone, 331.95 K): 0.0296
- solubility (mole fraction) (in 2-butanone, 335.25 K): 0.0326
- solubility (mole fraction) (in 2-butanone, 338.85 K): 0.036
- solubility (mole fraction) (in 2-butanone, 341.55 K): 0.039
- solubility (mole fraction) (in 2-butanone, 343.5 K): 0.0411
- solubility (mole fraction) (in 2-butanone, 345.25 K): 0.0432
- solubility (mole fraction) (in DMF, 289.45 K): 0.0208
- solubility (mole fraction) (in DMF, 293.65 K): 0.0228
- solubility (mole fraction) (in DMF, 300.83 K): 0.0269
- solubility (mole fraction) (in DMF, 305.65 K): 0.0301
- solubility (mole fraction) (in DMF, 308.85 K): 0.0324
- solubility (mole fraction) (in DMF, 317.55 K): 0.0398
- solubility (mole fraction) (in DMF, 320.45 K): 0.0426
- solubility (mole fraction) (in DMF, 322.95 K): 0.0452
- solubility (mole fraction) (in DMF, 325.25 K): 0.0477
- solubility (mole fraction) (in DMF, 333.55 K): 0.0582
- solubility (mole fraction) (in DMF, 337.65 K): 0.0643
- solubility (mole fraction) (in DMF, 342.65 K): 0.0722
- solubility (mole fraction) (in DMF, 346.65 K): 0.0794
- solubility (mole fraction) (in DMF, 350.75 K): 0.0876
- solubility (mole fraction) (in DMF, 353.35 K): 0.0932
- solubility (mole fraction) (in DMF, 356.25 K): 0.1
- solubility (mole fraction) (in DMSO, 289.35 K): 0.0116
- solubility (mole fraction) (in DMSO, 293.65 K): 0.0131
- solubility (mole fraction) (in DMSO, 297.05 K): 0.0143
- solubility (mole fraction) (in DMSO, 301.45 K): 0.0161
- solubility (mole fraction) (in DMSO, 305.95 K): 0.0184
- solubility (mole fraction) (in DMSO, 309.45 K): 0.0202
- solubility (mole fraction) (in DMSO, 314.05 K): 0.0231
- solubility (mole fraction) (in DMSO, 318.15 K): 0.026
- solubility (mole fraction) (in DMSO, 324.55 K): 0.0314
- solubility (mole fraction) (in DMSO, 328.05 K): 0.0348
- solubility (mole fraction) (in DMSO, 333.65 K): 0.0406
- solubility (mole fraction) (in DMSO, 338.85 K): 0.0473
- solubility (mole fraction) (in DMSO, 342.55 K): 0.0527
- solubility (mole fraction) (in DMSO, 346.05 K): 0.058
- solubility (mole fraction) (in DMSO, 349.35 K): 0.0637
- solubility (mole fraction) (in DMSO, 355.95 K): 0.0768
- solubility (mole fraction) (in cyclohexanone, 285.15 K): 0.0129
- solubility (mole fraction) (in cyclohexanone, 291.25 K): 0.0151
- solubility (mole fraction) (in cyclohexanone, 295.15 K): 0.0167
- solubility (mole fraction) (in cyclohexanone, 300.15 K): 0.0191
- solubility (mole fraction) (in cyclohexanone, 305.65 K): 0.0221
- solubility (mole fraction) (in cyclohexanone, 311.65 K): 0.0259
- solubility (mole fraction) (in cyclohexanone, 316.55 K): 0.0295
- solubility (mole fraction) (in cyclohexanone, 321.85 K): 0.0342
- solubility (mole fraction) (in cyclohexanone, 324.95 K): 0.037
- solubility (mole fraction) (in cyclohexanone, 328.75 K): 0.0411
- solubility (mole fraction) (in cyclohexanone, 333.25 K): 0.0462
- solubility (mole fraction) (in cyclohexanone, 337.35 K): 0.0515
- solubility (mole fraction) (in cyclohexanone, 341.35 K): 0.0572
- solubility (mole fraction) (in cyclohexanone, 348.35 K): 0.069
- solubility (mole fraction) (in cyclohexanone, 351.65 K): 0.0751
- solubility (mole fraction) (in cyclohexanone, 355.05 K): 0.0823
- solubility (mole fraction) (in toluene, 291.05 K): 0.0031
- solubility (mole fraction) (in toluene, 296.35 K): 0.0037
- solubility (mole fraction) (in toluene, 299.15 K): 0.0041
- solubility (mole fraction) (in toluene, 302.95 K): 0.0047
- solubility (mole fraction) (in toluene, 306.05 K): 0.0053
- solubility (mole fraction) (in toluene, 310.15 K): 0.0061
- solubility (mole fraction) (in toluene, 315.95 K): 0.0075
- solubility (mole fraction) (in toluene, 321.05 K): 0.0089
- solubility (mole fraction) (in toluene, 325.15 K): 0.0103
- solubility (mole fraction) (in toluene, 330.65 K): 0.0124
- solubility (mole fraction) (in toluene, 334.45 K): 0.014
- solubility (mole fraction) (in toluene, 340.75 K): 0.0175
- solubility (mole fraction) (in toluene, 343.55 K): 0.0192
- solubility (mole fraction) (in toluene, 348.45 K): 0.0226
- solubility (mole fraction) (in toluene, 350.65 K): 0.0244
- solubility (mole fraction) (in toluene, 354.45 K): 0.0276
